# “And” between values parts separate entries of the source, which are not always exact repeats. Identical values can stand only once. Like-named read-outs stand apart in the source and are kept apart here.
# Assays:
# [1] = system: mouse splenocytes, THP-1 human monocyte cell line, PBMCs from MS patients; test: Integrated analysis of genes modulated by Copaxone across mouse splenocytes, THP-1 human monocytes and MS patient PBMCs; conditions: human monocytes
# Description: Genome-wide expression profiles in cells from three different datasets in two different species (human, mouse) were studied. LIMMA was utilized to identify a genome-wide list of differentially expressed genes induced by GA in the primed and ex vivo stimulated mouse splenocytes, as well as in the THP-1 human monocyte cell line. Repeated-measures ANOVA was utilized to find a genome-wide list of genes modulated by GA in treated MS patients. Advanced enrichment algorithms were then applied to elucidate the pathways and cell types modulated by GA.
# The genes modulated by GA treatment in multiple studies were examined for enrichment in particular immunological cell types.
# [2] = system: mouse splenocytes; test: Microarray gene expression of ex vivo activated splenocytes from GA-immunized mice (Copaxone, Natco, Escadra, Probioglat, Hangzhou, TV-5010); assay type: cell-based
# Description: After 3 days, the mice were sacrificed and cells from their spleens (splenocytes) were isolated because such cells are representative of, and commonly utilized as a gold standard to study the immune system.
# Given the robustness of the model established in our first mouse splenocyte study, we sought to expand the scope of the investigation using the exact same study design, but with an expanded set of treatments (FIG. 1). In addition to comparing Copaxone® to a purported foreign generic version, we also sought to compare purported generics from various manufacturers to each other.
# Extraction of total RNA from activated splenocytes was extracted using PerfectPure RNA Cultures CEKK kit 50 (5Prime GmbH, Hamburg, Germany) and following the manufacturer's instructions. RNA quality was assessed using the absorbance ratio at 260/280 nm and gel electrophoresis (Experion, Bio-Rad, Hercules, Calif., USA). Total RNA extracted from samples was hybridized to Illumina Mouse WG-6V2 microarray chips containing more than 45,200 transcripts.
# Samples were randomized on the chips to avoid batch effects. Illumina's BeadStudio software was utilized for image processing, quantification of signal intensity per bead, and background signal correction. Multiple probes were analyzed for a given gene were averaged and batch correction was conducted using Partek. […]
# [3] = Level of Copaxone in THP-1 cell culture medium over time; assay type: physicochemical; conditions: THP-1 culture medium, over 24 hours; 50 μg/mL spiked
# [4] = system: THP-1 human monocyte cell line; assay type: cell-based; conditions: for Number of genes significantly modulated by Copaxone relative to mannitol: FDR-adjusted p<0.05
# Protocol: Prior to treatment cells were passed and plated in a 6-well plate at a concentration of 1.0×10^6 cells/mL. Cells were allowed to recover for four hours after passage (prior to treatment). […] Each sample was analyzed in six replicates. Cells were treated for 6, 12, and 24 hours. Following treatment time cells were lysed using a Qiagen® based lysis kit. Prior to RNA isolation samples were randomized in order to avoid batch effect. Total RNA was isolated using Qiagen® RNeasy kit. RNA quality was assessed by determining the absorbance ratio 260/280 nm as well as electrophoresis bioanalyzer with 260/280 ratio of 1.9-2.1 and RIN of above 9 were deemed acceptable. Gene expression was measured using Affymetrix® U133 plus 2.0 format. Sample processing was executed according to established manufacturer protocols. The scheme in (FIG. 2) illustrates the general experimental outline.
# RNA from THP-1 cells was extracted and expression profiled across the entire genome using the Affymetrix Human Genome U133 Plus 2.0 chip, interrogating a total of over 47,000 transcripts. Four batches of Copaxone® and one batch of Probioglat were comparatively tested in six biological replicates each. Key identified genes were independently evaluated for level of gene expression by quantitative Real-Time PCR of samples collected in the same experiments.
# mRNA expression levels were compared between GA and control (mannitol) tested with 6 sample replicates for each of 4 batches of GA and for mannitol, using LIMMA (Sim et al., Nat. Biotechnol. 2011) (Methods). […] We chose 6h for initial downstream analysis since this timepoint reflects the greatest impact of treatment. […] Rather, this decrease in number of genes affected from early to later timepoints represents an attribute of the response of the cells to the drug.
# To identify differences between branded GA and differently manufactured glatiramoids, differential gene expression analysis was performed to compare directly between profiles induced by branded GA and by the purported generic glatiramoid, Probioglat. The standard R LIMMA bioconductor package was utilized to measure differentially expressed probesets across the entire microarray. To compare GA and Probioglat, comparisons were corrected to compare each treatment relative to mannitol control (i.e., [GA vs mannitol] was compared via LIMMA to [Probioglat vs mannitol]). Probesets were filtered by calls of presence on the chip for the relevant samples in the comparison (to be considered present at a given timepoint, a probeset was required to have on average a call of present or marginal across the relevant samples at that timepoint). Probesets were mapped to genes using the annotation available for the U133 Plus 2.0 chip from Affymetrix. FDR adjusted p values reported for genes represent the lowest FDR adjusted p value for present probesets for that gene.
# [5] = 6 hr, FDR p < 1e−5, |FC| >= 1.3
# [6] = 6 hr, FDR p < 1e−5, |FC| >= 1.5
# [7] = 6 hr, nominal p < 0.05, vs mannitol
# [8] = 12 hr, FDR p < 1e−5, |FC| >= 1.3
# [9] = 12 hr, FDR p < 1e−5, |FC| >= 1.5
# [10] = 24 hr, FDR p < 1e−5, |FC| >= 1.3
# [11] = 24 hr, FDR p < 1e−5, |FC| >= 1.5
substance,measurement,setting,value
glatiramer acetate [Copaxone®],IL-10 gene expression in all 3 systems,[1],Upregulated expression
same,Number of genes modulated significantly by GA in all three studies,[1],39
same,"IL1B expression, Copaxone compared with Natco purported generic","[2]; first mouse splenocyte study, adjusted p=0.043 by ANOVA",significantly lower IL1B expression
same,IL1B expression relative to medium,[2]; mouse splenocytes,extremely effective in downregulating IL1B
same,Copaxone concentration in cell culture medium,[3],44 to 52 µg/mL
same,raw.FC 202434_s_at CYP1B1,[4],2.203
same,raw.FC 202435_s_at CYP1B1,[4],1.96
same,raw.FC 202436_s_at CYP1B1,[4],2.027
same,raw.FC 202437_s_at CYP1B1,[4],1.809
same,"IL1RN fold change (FC), all present probesets","[4]; 6h, GA vs mannitol, listed as GA",1.43 and 1.35 and 1.26
same,Number of genes significantly modulated by Copaxone relative to mannitol,[4]; 6 hour,"6,890"
same,IL10 fold change (FC),"[4]; 6 hour, GA vs mannitol",1.52
same,Number of genes Down-regulated by GA,"[4]; 6 hr, FDR p < 0.05",4066
same,Number of genes Up-regulated by GA,"[4]; 6 hr, FDR p < 0.05",2824
same,Number of genes Down-regulated by GA,[4]; [5],508
same,Number of genes Up-regulated by GA,[4]; [5],557
same,Number of genes Down-regulated by GA,[4]; [6],119
same,Number of genes Up-regulated by GA,[4]; [6],257
same,Number of genes Down-regulated by GA,[4]; [7],4909
same,Number of genes Up-regulated by GA,[4]; [7],3511
same,Number of genes significantly modulated by Copaxone relative to mannitol,[4]; 12 hours,"3,118"
same,Number of genes Down-regulated by GA,"[4]; 12 hr, FDR p < 0.05",1810
same,Number of genes Up-regulated by GA,"[4]; 12 hr, FDR p < 0.05",1308
same,Number of genes Down-regulated by GA,[4]; [8],50
same,Number of genes Up-regulated by GA,[4]; [8],210
same,Number of genes Down-regulated by GA,[4]; [9],10
same,Number of genes Up-regulated by GA,[4]; [9],68
same,Number of genes Down-regulated by GA,"[4]; 12 hr, nominal p < 0.05",3430
same,Number of genes Up-regulated by GA,"[4]; 12 hr, nominal p < 0.05",2377
same,Number of genes significantly modulated by Copaxone relative to mannitol,[4]; 24 hours,"1,791"
same,Number of genes Down-regulated by GA,"[4]; 24 hr, FDR p < 0.05",1185
same,Number of genes Up-regulated by GA,"[4]; 24 hr, FDR p < 0.05",606
same,Number of genes Down-regulated by GA,[4]; [10],6
same,Number of genes Up-regulated by GA,[4]; [10],57
same,Number of genes Down-regulated by GA,[4]; [11],0
same,Number of genes Up-regulated by GA,[4]; [11],15
same,Number of genes Down-regulated by GA,"[4]; 24 hr, nominal p < 0.05",3724
same,Number of genes Up-regulated by GA,"[4]; 24 hr, nominal p < 0.05",1410
same,CCL2 expression relative to mannitol control,"[4]; THP-1, 6 hours",decreased
same,CD14 expression versus mannitol control,"[4]; THP-1, 6 hours",not modulated
same,CD14 201743_at Copaxone Expression Value Range Maximum,"[4]; THP-1, all Copaxone samples",9.69
same,CD14 201743_at Copaxone Expression Value Range Minimum,"[4]; THP-1, all Copaxone samples",9.32
same,CISH 223377_x_at Copaxone Expression Value Range Maximum,"[4]; THP-1, all Copaxone samples",9.11
same,CISH 223377_x_at Copaxone Expression Value Range Minimum,"[4]; THP-1, all Copaxone samples",8.86
same,CISH 223961_s_at Copaxone Expression Value Range Maximum,"[4]; THP-1, all Copaxone samples",7.69
same,CISH 223961_s_at Copaxone Expression Value Range Minimum,"[4]; THP-1, all Copaxone samples",7.24
same,ICAM1 202637_s_at Copaxone Expression Value Range Maximum,"[4]; THP-1, all Copaxone samples",8.06
same,ICAM1 202637_s_at Copaxone Expression Value Range Minimum,"[4]; THP-1, all Copaxone samples",7.44
same,ICAM1 202638_s_at Copaxone Expression Value Range Maximum,"[4]; THP-1, all Copaxone samples",7.30
same,ICAM1 202638_s_at Copaxone Expression Value Range Minimum,"[4]; THP-1, all Copaxone samples",6.51
same,MMP9 203936_s_at Copaxone Expression Value Range Maximum,"[4]; THP-1, all Copaxone samples",9.97
same,MMP9 203936_s_at Copaxone Expression Value Range Minimum,"[4]; THP-1, all Copaxone samples",9.53
